In paper PMC11077050 (2024):

Experiments:
[1] = tested on: 15N-labeled RNA 2 (RNA, riboswitch) CCGGCAUAGCUUGUCCUUUAAUGGUCCUAUGUCGAAAAUG; assay: 1H NMR imino proton titration; settings: Na+ (25 mM NaCl, 15 mM sodium phosphate); pH 6.5, 15 °C, 10% D2O, 280 μM RNA, 0-4.5 equivalents; slow exchange in 0-1 equivalent range
[2] = tested on: RNA 2 (RNA, riboswitch) CCGGCAUAGCUUGUCCUUUAAUGGUCCUAUGUCGAAAAUG; assay: native ESI MS with CAD top-down MS (FT-ICR); settings: NH4+ 50 mM (ammonium bicarbonate), no divalent ions; 9:1 H2O/CH3OH, 0.25 mM piperazine, pH ~7.5; 1 μM RNA, 1-5 μM neomycin B; fourth molecule unspecific
[3] = tested on: RNA 3 (RNA, riboswitch) CCGUCAUAGCUUGUCCUUUAAUGGUCCUAUGACGAAAAUG; assay: native ESI MS with CAD top-down MS (FT-ICR); settings: NH4+ 50 mM (ammonium bicarbonate), no divalent ions; 9:1 H2O/CH3OH, 0.25 mM piperazine, pH ~7.5; 1 μM RNA, 1-5 μM neomycin B
[4] = tested on: RNA 4 (RNA, riboswitch) CCCUGAUAGCUUGUCCUUUAAUGGUCCUAUCUGGAAAAUG; assay: native ESI MS with CAD top-down MS (FT-ICR); settings: NH4+ 50 mM (ammonium bicarbonate), no divalent ions; 9:1 H2O/CH3OH, 0.25 mM piperazine, pH ~7.5; 1 μM RNA, 1-5 μM neomycin B
[5] = tested on: RNA 5 (RNA, riboswitch) CCGGCAUAGCUUCUCCUUUAAUGGUCCUAUGUCGAAAAUG; assay: native ESI MS with CAD top-down MS (Orbitrap); settings: motif C occupancy reduced to ~60% in 1:3 complexes

Measured: binding

NC[C@@H]1O[C@H](O[C@H]2[C@@H](O)[C@H](O[C@@H]3[C@@H](O)[C@H](N)C[C@H](N)[C@H]3O[C@H]3O[C@H](CN)[C@@H](O)[C@H](O)[C@H]3N)O[C@@H]2CO)[C@H](N)[C@@H](O)[C@@H]1O
yes: all assays above
